Results published in ChEMBL document CHEMBL1139617, “Total synthesis and bioactivity of unique flavone desmosdumotin B and its analogs” (2005).

test system: Raji; assay: Percent viability of Raji cells at concentration of 1000 mol ratio / 20 ng/mL TPA; type: functional, Homo sapiens

SMILES	Viability
CC1(C)C(=O)C(C(=O)/C=C/c2ccccc2)=C(O)C(C)(C)C1=O	70%
CC1=C(O)C(C)(C)C(O)=C(C(=O)/C=C/c2ccccc2)C1O (stereo unspecified)	70%
COC1=C(C)C(=O)c2c(oc(-c3ccccc3)cc2=O)C1(C)C	70%
CC(=O)C1=C(O)C(C)(C)C(O)=C(C(C)=O)C1=O	60%
CC(=O)C1=C(O)C(C)(C)C(O)=CC1=O	60%
CC(=O)C1=C(O)C(C)=C(O)C(C)(C)C1=O	60%
CC(=O)c1c(O)cc(O)c(C(C)=O)c1O	60%
CC(=O)C1=C(O)C(C)(C)C(=O)C(C)(C)C1=O	60%
CC1=C(O)C(C)(C)C2=C(C(=O)CC(c3ccccc3)O2)C1=O (stereo unspecified)	70%
COC1=C(C)C(O)=C(C(=O)/C=C/c2ccccc2)C(=O)C1(C)C [DESMOSDUMOTIN C]	70%
CC1=C(O)C(C)(C)c2oc(-c3ccccc3)cc(=O)c2C1=O [DESMOTUMOTIN B]	70%
